Results: US12357632B2, “Methods of treating cholangiocarcinoma” (QED Therapeutics, Inc., priority 2019, dated 2025)

Assays:
cholangiocarcinoma = conditions: ABC-02 trial (Valle et al., 2010); cited from earlier work
[1] = test system: advanced or metastatic cholangiocarcinoma with FGFR genetic alterations; test: Phase II study of oral BGJ398 in advanced or metastatic cholangiocarcinoma, Patient 5010004 (RECIST v1.1); format: in vivo, human; conditions: Patient 5010004, oral erdafitinib prior to study treatment
Protocol: This is a multi-center, open label, single arm phase II study evaluating BGJ398 anti-tumor activity in advanced or metastatic cholangiocarcinoma patients with FGFR genetic alterations. 125 mg of oral, monotherapy BGJ398 is administered once daily for the first 3 weeks (21 days) of each 28-day cycle. The starting dose of 125 mg may be reduced to 100 mg, 75 mg, or 50 mg. The treatment period begins on Cycle 1, Day 1, and continues until disease progression, unacceptable toxicity, withdrawal of informed consent, or death. Patients are evaluated for tumor response radiographically every 8 weeks until disease progression or discontinuation from study using RECIST v1.1 criteria.
Adult patients with histologically or cytologically confirmed advanced or metastatic cholangiocarcinoma with FGFR2 gene fusions or translocations or other FGFR genetic alteration who have evidence of radiologic progression following a cisplatin- and gemcitabine-containing regimen for advanced disease or a gemcitabine-containing regimen for those who are considered intolerant to cisplatin are enrolled. Up to approximately 160 adult patients over age 18, both male and female are enrolled. Three cohorts of patients comprise the study population: • Cohort 1: ˜120 patients, 108 with FGFR2 gene fusions or translocations and 12 with other FGFR genetic alterations. • Cohort 2: ˜20 patients with FGFR genetic alterations other than FGFR2 gene fusions or translocations. • Cohort 3: Up to ˜20 patients with FGFR2 gene fusions or translocations who have received a prior FGFR inhibitor. Main Inclusion Criteria
Tumor response according to RECIST v1.1, and survival.
During treatment with infigratinib, the patient's response was determined by follow-up assessments conducted by a local investigator per RECIST v1.1.

[2] = Tolerability (body weight, clinical observations) in Vex-MR086M1 xenograft study; format: in vivo, Mouse (Mus musculus)
Protocol: (§1) All animals were weighed at the same time as tumor size measurement. A Relative Body Weight loss (RBW loss) was considered as adverse effect of the treatment.
(§2) Mice were observed every day for physical appearance, behavior and clinical changes.
(§3) Relative Body Weight (RBW) is calculated for each measurement by dividing the body weight by the body weight at the start of treatment.
(§4) Individual Body weight loss percent (% BWL)=100−(BWX/BW0×100), where BWX is the BW at any day during the treatment and BW0 is the BW on the day of inclusion.
(§5) Mean Body weight loss percent (% BWL)=100−(mean BWX/mean BW0×100), where BWX is the mean BW at any day during the treatment and BW0 is the mean BW on the day of inclusion.

[3] = Tolerability (body weight, clinical observations) in UREx-MR2057PD-AR xenograft study; format: in vivo, Mouse (Mus musculus)
Protocol: as §1, §2, §3, §4, §5

Compound | median overall survival (cholangiocarcinoma) [months] | median progression-free survival (cholangiocarcinoma) [months] | best response [1] | time to discontinuation due to radiological disease progression [1] | clinical observations ([2]; erdafitinib 15 mg/kg PO qdx21) | mean body weight loss ([2]; erdafitinib 15 mg/kg PO qdx21) | tolerability ([2]; erdafitinib 15 mg/kg PO qdx21) | maximum individual body weight loss ([2]; erdafitinib 15 mg/kg PO qdx21, on D17) [%] | clinical observations ([3]; erdafitinib 15 mg/kg PO qdx21) | maximum mean body weight loss ([3]; erdafitinib 15 mg/kg PO qdx21) | tolerability ([3]; erdafitinib 15 mg/kg PO qdx21) | maximum individual body weight loss ([3]; erdafitinib 15 mg/kg PO qdx21, on D3) [%]
Nc1ccn([C@@H]2O[C@H](CO)[C@@H](O)C2(F)F)c(=O)n1 [gemcitabine] | 8.1 | 5.0 |  |  |  |  |  |  |  |  |  | 
COc1cc(OC)cc(N(CCNC(C)C)c2ccc3ncc(-c4cnn(C)c4)nc3c2)c1 [Erdafitinib, reference compound] |  |  | progressive disease | approximately 2 months | No relevant observable signs were reported | no mean body weight loss | well tolerated except for 1 mouse | 10.6 | No relevant observable signs were reported | no maximum mean body weight loss | well tolerated | 4.9
